In ChEMBL document CHEMBL1139024, “Synthesis and evaluation of an N-acylated photoactivatable analogue of glutathione as probe for glutathione-utilizing enzymes” (Bioorg Med Chem Lett, 2006):

Test: Inhibition of glutathione S-transferase in rat liver

- IC50: 1000 µM
Compound: O=C(O)CNC(=O)[C@H](CS)NC(=O)CC[C@H](NC(=O)c1ccc(C(=O)c2ccccc2)cc1)C(=O)O
